Results on two compounds are retold here after ChEMBL document CHEMBL4422644, “Synthesis and evaluation of α-aminoacyl amides as antitubercular agents effective on drug resistant tuberculosis” (Eur J Med Chem, 2019).

For data set [1], the system named is Acinetobacter baumannii. Put plainly: Antibacterial activity against Acinetobacter baumannii ATCC BAA-1605 after 24 hrs. The format is functional. The following applies: ATCC BAA-1605, 24 h.
The subject of data set [2] is HeLa. Put plainly: Cytotoxicity against human HeLa cells after 24 hrs by MTT assay. Format: functional, cell-based. (Formazan colour is commonly taken as a measure of viable cells.)
Data set [3] relates to Staphylococcus aureus. Nature of the data set: Antibacterial activity against Staphylococcus aureus ATCC 29213 after 24 hrs. The following applies: ATCC 29213, 24 h. The format is functional.
Data set [4] has as its system HepG2. Put plainly: Cytotoxicity against human HepG2 cells after 24 hrs by MTT assay. Format: functional, cell-based. The following applies: HepG2, 24 h.
Data set [5] concerns Pseudomonas aeruginosa. Put plainly: Antibacterial activity against Pseudomonas aeruginosa ATCC 27853 after 24 hrs. The format is functional. The following applies: ATCC 27853, 24 h.
Data set [6] has as its system Mycolicibacterium fortuitum. Nature of the data set: Antibacterial activity against Mycobacterium fortuitum after 7 days by alamar blue assay. The format is functional. The following applies: 168 h. (In general: Alamar Blue is a resazurin reagent that responds to reducing activity.)
Data set [7] relates to DU-145. Put plainly: Cytotoxicity against human DU145 cells after 24 hrs by MTT assay. As to conditions: DU-145, 24 h. Format: functional, cell-based.
The nature of data set [8]: Cytotoxicity against HEK cells after 24 hrs by MTT assay. The format is cell-based. As to conditions: Homo sapiens, HEK293, 24 h.
Data set [9] concerns Klebsiella pneumoniae. Put plainly: Antibacterial activity against Klebsiella pneumoniae ATCC BAA-1705 after 24 hrs. The format is functional. As to conditions: ATCC BAA-1705, 24 h.
Data set [10] can be described thus: Cytotoxicity against […] B16 cells after 24 hrs by MTT assay. The following applies: B16, 24 h. The format is functional, cell-based.
For data set [11], the system named is Mycobacteroides abscessus. Nature of the data set: Antibacterial activity against Mycobacterium abscessus after 7 days by alamar blue assay. Format: functional. As to conditions: 168 h.
In data set [12] the test system is MCF7. Nature of the data set: Cytotoxicity against human MCF7 cells after 24 hrs by MTT assay. The following applies: MCF7, 24 h. The format is functional, cell-based.
Data set [13] relates to Mycobacterium tuberculosis. Put plainly: Antitubercular activity against Mycobacterium tuberculosis H37Rv after 6 days by alamar blue assay. The format is functional. The following applies: 144 h.
Data set [14] relates to Escherichia coli. Nature of the data set: Antibacterial activity against Escherichia coli ATCC 25922 after 24 hrs. The format is functional. As to conditions: ATCC 25922, 24 h.
In data set [15] the test system is Mycobacterium tuberculosis. Put plainly: Antitubercular activity against Mycobacterium tuberculosis H37Rv after 7 days by alamar blue assay. Format: functional. The following applies: 168 h.
Data set [16] is described as follows: Selectivity index, ratio of IC50 for CHOK1 cells to MIC for Mycobacterium tuberculosis H37Rv. As to conditions: hamster, read-out: Selectivity Index. Format: toxicity.
Data set [17] deals with A549. Put plainly: Cytotoxicity against human A549 cells after 24 hrs by MTT assay. The format is functional, cell-based. As to conditions: A549, 24 h.
Data set [18] relates to CHO-K1. Nature of the data set: Cytotoxicity against CHOK1 cells after 24 hrs by MTT assay. The following applies: Cricetulus griseus, CHO-K1, 24 h. Format: cell-based.
Data set [19] deals with Mycobacteroides chelonae. Put plainly: Antibacterial activity against Mycobacterium chelonae after 7 days by alamar blue assay. The format is functional. The following applies: 168 h.
Data set [20] can be described thus: Selectivity index, ratio of IC50 for HEK cells to MIC for Mycobacterium tuberculosis H37Rv. The format is toxicity. As to conditions: human, read-out: Selectivity Index.
Data set [21] concerns Mycobacterium tuberculosis. Nature of the data set: Antitubercular activity against Mycobacterium tuberculosis H37Rv assessed as microbial killing at 4 fold MIC incubated for 6 days by MPN assay. The format is functional, organism-based.

≈ marks a conversion by molar mass, not a printed value.

As for `Cc1nc(C)c(C(=O)N(c2cccc(C)c2C)C(C(=O)NC2CCCCC2)c2ccccc2)s1` (centres undefined), the MIC in data set [1], in data set [3], in data set [5], in data set [6], in data set [9] and in data set [11] was above 50 µM each time. For the same compound, the MIC in data set [13] was 12.5 µM (≈ 5.95 µg/mL); in data set [14], above 50 µM; in data set [15], 12.5 µM (≈ 5.95 µg/mL); in data set [19], above 50 µM. Besides, the IC50 came to 8.29 µM in [2]; 9.34 µM in [4]; 12.6 µM in data set [7]; 34.4 µM in data set [8]; 15.5 µM in [10]; 11 µM in [12]. Moreover, the half-maximal inhibitory concentration (IC50) in [17] was 12.5 µM; in data set [18], 27.9 µM. The selectivity ratio in [16] was 2.1.

For `Cc1nc(C)c(C(=O)N(c2cccc(C)c2C)C(C(=O)NC2CCCCC2)c2cccnc2)s1` (centres undefined), the MIC in [1], in [3], in data set [5], in data set [6], in [9] and in data set [11] was above 50 µM throughout. Besides, the values for the MIC in data set [14], in data set [15] and in data set [19] were above 50 µM, 0.78 µM (≈ 0.372 µg/mL) and above 50 µM, respectively. Further, the IC50 in data set [2] worked out at 9.58 µM; in data set [4], 14 µM; in data set [7], 10 µM; in [8], 81.1 µM; in [10], 13.4 µM; in data set [12] it was 6.39 µM. Further, the half-inhibitory concentration (IC50) in data set [17] stood at 8.62 µM; in [18] it was 107 µM. For the same compound, the selectivity ratio was 104 in data set [20] and 136 in [16]. For the same compound, in data set [21], the Activity result is “Dose-dependent effect”.

The term MIC denotes the lowest concentration that inhibits growth of the organism. For orientation: IC50 means the concentration at which inhibition is half-maximal.
